Values quoted from earlier work as cited in publication PMC8515052, “PepVAE: Variational Autoencoder Framework for Antimicrobial Peptide Generation and Activity Prediction” (Frontiers in Microbiology, 2021).

Test system: Acinetobacter baumannii
Conditions: murine model of infection; ref Stokes et al., 2020
Excerpt: Many pathogenic bacteria are resistant to the majority of, if not all, antibiotics that are currently being isolated using traditional methods. Because of this, generation of new antimicrobials is critical for survival in the post-antibiotic era ([Brown and Wright, 2016]). At the current rate, annual global death due to antibiotic resistance is projected to exceed 10 million by 2050, costing 100 trillion USD ([O’Neill, 2014]); however, investment has not kept up with the task with very few antibiotics currently in clinical development and far fewer likely to be approved for treatment of patien ...

Nc1nnc(Sc2ncc([N+](=O)[O-])s2)s1 [halicin]
activity against Acinetobacter baumannii: displays activity
